# Measured values as given in paper PMC6390093, “Structural basis of small RNA hydrolysis by oligoribonuclease (CpsORN) from Colwellia psychrerythraea strain 34H” (Scientific Reports, 2019).
# B1: oligoribonuclease from Colwellia psychrerythraea strain 34H (CpsORN), wild-type (enzyme, UniProt Q47VZ4 1-181, looked up)
# chain: MAGNDSNLIWLDLEMTGLEPVEDVILEIAIIITDSELNILAQGPIFAISQTDDVLDNMNPWCIEHHGKSGLTQRCRDSEVSLAHATKESLAFVQEWVPQGKSPMCGNSIGQDRRFINKYMPDFEDHFHYRNLDVSTIKELAKRWKPEVLESVVKTGAHLALDDIKESIAELKVYRELFFKL
# notes: oligoribonuclease (CpsORN) of Colwellia psychrerythraea strain 34H, full-length gene orn, residues 1-181; pET-28a construct with a thrombin site after the His tag; also called unliganded CpsORN; source: E. coli BL21(DE3), purified (Ni-NTA, thrombin cleavage, Superdex 200); not shown: His6, N-terminal, cleaved
# B2: CpsORN D163A inactive mutant (enzyme, Colwellia psychrerythraea strain 34H, UniProt Q47VZ4 1-181, looked up)
# chain: MAGNDSNLIWLDLEMTGLEPVEDVILEIAIIITDSELNILAQGPIFAISQTDDVLDNMNPWCIEHHGKSGLTQRCRDSEVSLAHATKESLAFVQEWVPQGKSPMCGNSIGQDRRFINKYMPDFEDHFHYRNLDVSTIKELAKRWKPEVLESVVKTGAHLALDAIKESIAELKVYRELFFKL
# notes: oligoribonuclease (CpsORN) of Colwellia psychrerythraea strain 34H, full-length gene orn with Asp163 replaced by alanine; Made from the wild-type plasmid and purified by the same procedure as the wild type; also called D163A mutant; source: E. coli BL21(DE3), purified (Ni-NTA, thrombin cleavage, Superdex 200); not shown: His6, N-terminal, cleaved
# Columns and labels:
# [1] = target: T1, CpsORN (Colwellia psychrerythraea, UniProt Q47VZ4); assay: X-ray crystal structure, […] Å; format: binding; conditions: 5 mM uridine added, 1 mM MnCl2; active site with Mn2+; two molecules per site; text describes a phosphate on U2
# T1 construct: gene orn
# [2] = target: T2, CpsORN (Colwellia psychrerythraea, UniProt Q47VZ4, D163A); assay: X-ray crystal structure, […] Å; format: binding; conditions: 5 mM pNP-TMP, 1 mM MnCl2 added, no metal seen in active site; two molecules per site; inactive mutant
# T2 construct: gene orn
# [3] = target: T1, CpsORN; assay: spectrophotometric release of p-nitrophenolate at […] nm; format: biochemical; conditions: 3 mM substrate, 1 mM MnCl2, 50 mM Tris pH 8.0, 150 mM NaCl, 25 °C, 400 nM protein
# [4] = target: the molecule itself; assay: AUC; sedimentation velocity, 0.5 mg/mL CpsORN in 20 mM Tris-HCl pH 8.0, 150 mM NaCl, 45,000 rpm, monitored at 280 nm, SEDFIT
# [5] = target: the molecule itself; assay: crystal structure; four crystal forms (unliganded, pNP-TMP-bound, linked uridine-bound, separated uridine-bound), sitting- or hanging-drop vapour diffusion at 293 K
molecule,measurement,setting,value
O=c1ccn([C@@H]2O[C@H](COP(=O)(O)O)[C@@H](O)[C@H]2O)c(=O)[nH]1,"X-ray crystal structure, 2.2 Å",[1],6A4F (separated uridine-bound CpsORN)
Cc1cn([C@H]2C[C@H](O)[C@@H](COP(=O)(O)Oc3ccc([N+](=O)[O-])cc3)O2)c(=O)[nH]c1=O [pNP-TMP],"X-ray crystal structure, 2.2 Å",[2],The pNP-TMP complexed D163A mutant CpsORN crystal contains two pNP-TMP molecules in the active site
same,spectrophotometric release of p-nitrophenolate at 420 nm,[3],CpsORN showed hydrolysis activity toward pNP-TMP in the presence of manganese or magnesium
B1,stoichiometry N,[4],2
B2,binding result,[5],binds
